Measured values taken from patent US20260250337A1, “HYBRID ANTIMICROBIAL PEPTIDES” (UNIVERSIDADE FEDERAL DO ABC, priority 2023, published 2026).
“Also recorded” adds a separate entry of the source. No end group written: not given here.

What was measured:
[1] = system: M. luteus A270; assay: Liquid growth inhibition assay, MIC; assay type: cell-based, Micrococcus luteus; conditions: 37° C., 18 h
Protocol: (§1) Initially, the antimicrobial activity was determined by liquid growth inhibition assays, as previously described by Pedron et al.^62. Briefly, Peptone Broth and Potato Dextrose Broth (Invitrogen) were used for antibacterial and antifungal assays, respectively. Two-fold serial dilutions of peptides (0.09-50 μmol L^−1) and microorganisms (Serratia marcescens ATCC 4112, Enterobacter cloacae β-12, Micrococcus luteus A270, Bacillus megaterium ATCC 10778, Bacillus subtilis ATCC 6633, Candida albicans MDM8, and Candida tropicalis IOC 4560) were incubated at 37° C. for 18 h (for bacteria) or 24 h (for fungi), and microbial growth was assessed by absorbance measurements at 595 nm. Experiments were performed in three biological repeats.

[2] = system: S. epidermidis ATCC 12228; assay: Liquid growth inhibition assay, MIC; assay type: cell-based; conditions: 37° C., 18 h
[3] = system: B. megaterium ATCC 10778; assay: Liquid growth inhibition assay, MIC; assay type: cell-based, Bacillus megaterium; conditions: 37° C., 18 h
Protocol: as §1

[4] = system: S. marcescens ATCC 4112; assay: Liquid growth inhibition assay, MIC; assay type: cell-based, Serratia marcescens; conditions: 37° C., 18 h
Protocol: as §1

[5] = system: E. cloacae β-12; assay: Liquid growth inhibition assay, MIC; assay type: cell-based, Enterobacter cloacae; conditions: 37° C., 18 h
Protocol: as §1

[6] = system: C. albicans MDM8; assay: Liquid growth inhibition assay, MIC (antifungal); assay type: cell-based, Candida albicans; conditions: 37° C., 24 h
Protocol: as §1

[7] = system: C. tropicalis IOC 4560; assay: Liquid growth inhibition assay, MIC (antifungal); assay type: cell-based, Candida tropicalis; conditions: 37° C., 24 h
Protocol: as §1

[8] = system: human erythrocytes; assay: Hemolytic activity assay; assay type: cell-based; conditions: for Hemolytic activity, concentration of peptide needed to kill 10% of red blood cells / MHC: human erythrocytes, 1 h; for MHC: room temperature, concentration with approximately 0% of hemolytic activity
Protocol: Method. Assays against freshly collected human erythrocytes were performed following protocols described by Pedron et al. 62. Briefly, peptide aliquots at concentrations ranging from 0.1 to 100 μmol L−1 were incubated with a suspension of erythrocytes at room temperature for 1 h. The samples were then centrifuged, and the absorbance of the supernatant was measured at 405 nm. The MHC (maximal non-hemolytic concentration) was determined as the maximal concentration at which 100% of the erythrocytes were viable. The surfactant SDS and PBS buffer were used as positive88, 89 and negative controls, respectively. Sodium heparin was used as an anticoagulant when collecting human blood. Three biological repeats were performed.

[9] = system: Plasmodium gallinaceum sporozoites; assay: Antiplasmodial activity, fluorescence microscopy; assay type: cell-based; conditions: for P. gallinaceum (% sporozoites at 0.8 μmol L^−1): fluorescent (propidium iodide stained) sporozoites, 37° C., 1 h; for antiplasmodial activity: P. gallinaceum sporozoites, concentration range tested
Protocol: Method. The activity of the peptides against Plasmodium gallinaceum sporozoites was determined by fluorescence microscopy, as previously described by Silva et. al.^83. Briefly, 9,000 sporozoites were isolated from the glands of infected Aedes aegypti mosquitos and incubated with serially diluted peptides (ranging from 0.1 to 1.6 μmol L^−1) at 37° C. for 1 h. A PBS solution and the surfactant digitonin^84, 85 were used as negative and positive controls, respectively. Propidium iodide was used to stain dead cells. Assays were executed using fluorescence microscopy. Three biological repeats each with three different mosquito batches (n=9) were used.

[10] = Circular dichroism, helical fraction (Lifson-Roig); assay type: physicochemical; conditions: peptide 50 μmol L^−1; for Helical fraction (fH) PBS: PBS 10 mmol L^−1, pH 7.4; for Helical fraction (fH) POPC: POPC 10 mmol L^−1; for Helical fraction (fH) POPC:DOPE: POPC:DOPE 3:1, mol:mol; for Helical fraction (fH) POPC:DOPE / Helical fraction (fH) POPC:POPG: 10 mmol L^−1; for Helical fraction (fH) POPC:POPG: POPC:POPG 3:1, mol:mol; for Helical fraction (fH) SDS: SDS 20 mmol L^−1 in water; for Helical fraction (fH) TFE/Water: TFE in water (3:2, v:v)
Protocol: Method. Circular dichroism (CD) assays were performed with a Spectropolarimeter Jasco Mod. J-815 (JascoCorp). CD spectra were obtained in Far-UV (195-260 nm), and analyzed in the following solutions: water, 2,2,2-trifluoroethanol (TFE) in water (3:2, v:v), phosphate buffer saline (PBS, 10 mmol L^−1, pH 7.4), sodium dodecyl sulfate (SDS 20 mmol L^−1) in water, palmitoyloleoylphosphatidylcholine (POPC; 10 mmol L^−1), palmitoyloleoylphosphatidylcholine:dioleylphosphatidylethanolamine (POPC:DOPE; 3:1, mol:mol, 10 mmol L^−1) and palmitoyloleoylphosphatidylcholine:palmitoyloleoylphosphatidylglycerol (POPC:POPG; 3:1, mol:mol, 10 mmol L^−1) at a peptide concentration of 50 μmol L^−1. These experiments were performed as described in detail by Pedron et al.^62.

[11] = Resistance to degradation in fetal bovine serum; assay type: in vitro ADME; conditions: fetal bovine serum 25% in water, 37° C.; for remaining at 0.5 h: 30 min, read-out: remaining peptide, 30 min; for remaining at 1 h: read-out: remaining peptide, 1 h; for remaining at 2 h: read-out: remaining peptide, 2 h; for remaining at 4 h: read-out: remaining peptide, 4 h
Protocol: The resistance to proteolytic degradation of the hybrid peptides was assessed by exposing them for 6 h to serum peptidases in a fetal bovine serum solution^68, 69 (FIG. 5a and Table S4). The peptide degradation kinetics were calculated by integrating the peak area of the peak in relation to the peptide at the beginning of the experiment (time=0) and comparing it to the integrated peak area relative to the peptides after exposure to the enzymes at time points: 0.5, 1, 2, 4, and 6 h (FIG. 5a and Table S4). […] However, AV was resistant to degradation against proteases, with almost 40% peptide content remaining after 4 h of exposure (FIG. 5a and Table S4). […] VP was almost entirely degraded after 30 min (22% of peptide remaining). […] D-amino acid substitutions have been used as alternatives to prevent the degradation of AMPs. For example, Qiu et. al. described a protonectin analog with a D-Lys residue in position 10 as an alternative to protonectin; this analog is not degraded and has higher antimicrobial activity against bacteria and fungi than the original peptide.
Methods. Stability assays were performed following the protocol described by Torres et al.^71. Briefly, a peptide solution was added to GIBCO fetal bovine serum diluted to 25% in water and kept at 37° C. The degradation kinetics were monitored by liquid chromatography and the percentage of peptide remaining was calculated by integrating the peptide peak area. The experiments were performed as three independent replicates, and aliquots were taken at 0, 0.5, 1, 2, 4, and 6 h.

[12] = system: bacterial strains; assay: Antimicrobial activity over the panel of strains; assay type: cell-based; conditions: range of concentrations tested
Protocol: as §1
Method. The minimal inhibitory concentration (MIC) against the ESKAPE pathogens was determined using the broth microdilution method^81, 82 in Luria-Bertani (LB) medium. The MIC value was defined as the lowest concentration of peptide at which no microbial growth was observed. A. baumannii ATCC19606, E. coli ATCC11775, E. coli AIC221, E. coli AIC222, K. pneumoniae ATCC13883, S. aureus ATCC12600 P. aeruginosa PAO1, and P. aeruginosa PA14 were incubated on agar plates, and after 24 h, three isolated colonies were inoculated to 5 mL of Luria-Bertani (LB) broth and maintained at 37° C. overnight with shaking. Peptides were then added to 96-well polystyrene microtiter plates at concentrations ranging from 0 to 128 μmol L^−1, and 5×10^5 CFU mL^−1 of each bacterium was inoculated in each well. The plates were incubated at 37° C. for 24 h. Bacterial growth was measured using a microplate reader at 610 nm. Three independent replicates were performed.

[13] = system: MCF-7 human breast cancer cells; assay: Anticancer activity, MTT assay; assay type: cell-based; conditions: incubation time not stated
Protocol: The anticancer activity assays were performed using MCF-10A human breast epithelial cells and MCF-7 mammary cancer cells as previously described by Pedron et al. 86. Briefly, the day before treatment, the cells were incubated at 37° C. and 5% CO2 for 24 h. The cells were treated with peptides ranging from 12.5 to 100 μmol L^−1 (MCF10-A cells) and 0.8 to 100 μmol L^−1 (MCF-7 cells) for 4 h and 24 h at 37° C., and cell viability was measured using 3-(4,5-Dimethylthiazol-2-yl)-2,5-diphenyltetrazolium bromide (MTT) assays 87. Three independent replicates were performed in each case.

[14] = at 100 μmol L^−1; cited from earlier work
[15] = bovine, fetal bovine serum, 25% in water
[16] = bovine, fetal bovine serum, 25% in water, 4 h

Row | Substance | MIC M. luteus A270 [1] [µmol/L] | MIC S. epidermidis ATCC 12228 [2] [µmol/L] | MIC B. megaterium ATCC 10778 [3] [µmol/L] | MIC S. marcescens ATCC 4112 [4] [µmol/L] | MIC E. cloacae β-12 [5] [µmol/L] | MIC C. albicans MDM8 [6] [µmol/L] | MIC C. tropicalis IOC 4560 [7] [µmol/L] | Hemolytic activity, concentration of peptide needed to kill 10% of red blood cells [8] [µmol/L] | MHC [8] [µmol/L] | P. gallinaceum (% sporozoites at 0.8 μmol L^−1) [9] [%] | antiplasmodial activity [9] | Helical fraction (fH) PBS [10] | Helical fraction (fH) POPC [10] | Helical fraction (fH) POPC:DOPE [10] | Helical fraction (fH) POPC:POPG [10] | Helical fraction (fH) SDS [10] | Helical fraction (fH) TFE/Water [10] | Helical fraction (fH) Water [10] | remaining at 0.5 h [11, 15] [%] | remaining at 1 h [11, 15] [%] | also measured
1 | GLGALLNVIKSGL-NH2 [AV, Gly-Leu-Gly-Ala-Leu-Len-Asn-Val-Ile-Lys-Ser-Gly-Leu] | 6.3 | >50 | >50 | 50 | >50 | 50 | 50 | 100 | >100 | 90 | exhibited antiplasmodial activity | 0.05 | 0.03 | 0.08 | 0.04 | 0.31 | 0.42 | 0.08 | ~40 | ~40 | hemolytic activity ([8]; 0.1 to 100 μmol L^−1): minimal hemolytic activity; remaining at 2 h [11, 15]: ~40%; remaining at 4 h [11, 16]: ~40%; remaining peptide, 4 h ([11]; 4 h): ~40%; antimicrobial activity [12]: lower antimicrobial activities than the corresponding template peptides
2 | SLGALINVLKSGG-NH2 [DV, Ser-Leu-Gly-Ala-Leu-Ile-Asn-Val-Leu-Lys-Ser-Gly-Gly] | >50 | >50 | >50 | >50 | >50 | >50 | >50 | 0.1 | 0.1 | 31 | did not exhibit significant antiplasmodial activity; also recorded: did not present antiplasmodial activity | 0.12 | 0.08 | 0.11 | 0.41 | 0.62 | 0.90 | 0.11 | ~50 | ~50 | remaining at 2 h [11, 15]: ~50%; remaining at 4 h [11, 16]: ~50%; remaining at 6 h ([11]; bovine, fetal bovine serum, 25% in water, 6 h, read-out: remaining peptide, 6 h): ~50%; antimicrobial activity [12]: No antimicrobial activities were observed; also recorded: did not exhibit antimicrobial activity
3 | SLLSLIRKLIT-NH2 [Decoralin, Ser-Leu-Leu-Ser-Len-Ile-Arg-Lys-Leu-Ile-Thr, reference compound] | 0.8 | 6.3 | 1.6 | 3.1 | 6.3 | 0.8 | 1.6 | 1.6 | 1.6 | 0 | no activity; also recorded: did not present antiplasmodial activity | 0.06 | 0.23 | 0.19 | 0.40 | 0.22 | 0.29 | 0.05 | ~70 | < 30 | concentration with activity against MCF-7 human breast cancer cells [13]: 50 µmol/L; remaining at 2 h [11, 15]: < 30%; hemolytic activity of decoralin [14]: low hemolytic activity
